Data: PMC2219267 (The Journal of General Physiology, 1996)
Read-outs that look alike come from different tables or passages of the source.

Molecular target: T1, band 3 (Homo sapiens, UniProt P02730)
T1 sequence (P02730 1-911): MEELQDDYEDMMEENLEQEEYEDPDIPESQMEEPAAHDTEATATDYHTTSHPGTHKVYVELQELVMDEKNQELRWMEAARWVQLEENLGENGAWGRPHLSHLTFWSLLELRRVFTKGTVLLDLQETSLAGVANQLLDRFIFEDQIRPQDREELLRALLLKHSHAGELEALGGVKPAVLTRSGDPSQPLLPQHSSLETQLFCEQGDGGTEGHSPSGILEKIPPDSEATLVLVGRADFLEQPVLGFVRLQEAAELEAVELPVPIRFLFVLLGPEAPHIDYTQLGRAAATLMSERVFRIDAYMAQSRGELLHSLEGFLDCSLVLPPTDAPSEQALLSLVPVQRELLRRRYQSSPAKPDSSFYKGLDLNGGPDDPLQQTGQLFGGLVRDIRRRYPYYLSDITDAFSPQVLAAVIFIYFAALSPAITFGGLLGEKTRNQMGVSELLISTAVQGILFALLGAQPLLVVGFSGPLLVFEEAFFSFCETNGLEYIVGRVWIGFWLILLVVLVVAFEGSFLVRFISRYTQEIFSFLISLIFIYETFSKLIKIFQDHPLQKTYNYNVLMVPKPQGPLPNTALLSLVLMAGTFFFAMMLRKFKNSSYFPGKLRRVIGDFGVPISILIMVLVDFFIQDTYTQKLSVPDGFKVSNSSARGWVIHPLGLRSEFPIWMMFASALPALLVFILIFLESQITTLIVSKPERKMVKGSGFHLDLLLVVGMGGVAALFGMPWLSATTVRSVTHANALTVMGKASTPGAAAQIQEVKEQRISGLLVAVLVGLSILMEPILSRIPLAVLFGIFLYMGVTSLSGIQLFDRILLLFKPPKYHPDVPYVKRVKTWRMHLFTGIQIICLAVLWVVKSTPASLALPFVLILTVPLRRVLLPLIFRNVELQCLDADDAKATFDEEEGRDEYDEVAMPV
Assay: 36Cl exchange flux inhibition in red blood cells, Dixon plots
Format: cell-based
Conditions: for Kd: read-out: Average KoI (SE)

[1] = exp 86, pHo 11.6, sucrose, Clo 30 mM
[2] = exp 86, pHo 11.6, sucrose, Clo 200 mM
[3] = exp N223, pHo 7.2, citrate, Clo 1.05 mM
[4] = exp N223, pHo 7.2, citrate, Clo 2.07 mM
[5] = exp N223, pHo 7.2, citrate, Clo 145 mM
[6] = exp N225, pHo 7.2, citrate, Clo 2.07 mM
[7] = exp N225, pHo 7.2, citrate, Clo 4.14 mM
[8] = exp N225, pHo 7.2, citrate, Clo 130 mM

ID50 for iodide in the medium with low Cl- concentration (exp 82, pHo 10.6, 0°C, CHES, Cli 138 mM, low Clo 1.7 mM): 19.8 mM | ID50 for iodide in the medium with low Cl- concentration (exp 83, pHo 10, 0°C, CHES, Cli 129 mM, low Clo 1.7 mM): 6.58 mM | ID50 for iodide in the medium with low Cl- concentration (exp 84, pHo 8.0, 0°C, Hepes, Cli 130 mM, low Clo 0.9 mM): 2.05 mM | ID50 for iodide in the medium with low Cl- concentration (exp 85, pHo 7.2, 0°C, Hepes, Cli 133 mM, low Clo 0.3 mM): 1.80 mM | ID50 for iodide in the medium with low Cl- concentration (exp 86, pHo 11.6, 0°C, CAPS, Cli 295 mM, low Clo 30 mM): 63.3 mM | DS·Clo (Dixon slope times [Clo]) [1]: 0.2098 | Dixon slope (DS) for Io inhibition of Cl- exchange [1]: 0.00699 | High/low: DS·Clo at the highest [Clo] divided by that at the given [Clo] [1]: 1.12 | DS·Clo (Dixon slope times [Clo]) [2]: 0.2354 | Dixon slope (DS) for Io inhibition of Cl- exchange [2]: 0.00118 | ID50 for iodide in the medium with low Cl- concentration (exp 86, pHo 12.4, 0°C, CAPS, Cli 295 mM, low Clo 30 mM): 88.5 mM | DS·Clo (Dixon slope times [Clo]) (exp 86, pHo 12.4, Clo 30 mM): 0.3617 | Dixon slope (DS) for Io inhibition of Cl- exchange (exp 86, pHo 12.4, Clo 30 mM): 0.01206 | High/low: DS·Clo at the highest [Clo] divided by that at the given [Clo] (exp 86, pHo 12.4, Clo 30 mM): 1.08 | DS·Clo (Dixon slope times [Clo]) (exp 86, pHo 12.4, Clo 200 mM): 0.3918 | Dixon slope (DS) for Io inhibition of Cl- exchange (exp 86, pHo 12.4, Clo 200 mM): 0.001959 | ID50 for iodide in the medium with low Cl- concentration (exp 87, pHo 11.9, 0°C, CAPS, Cli 294 mM, low Clo 30 mM): 83.8 mM | ID50 for iodide in the medium with low Cl- concentration (exp 87, pHo 12.4, 0°C, CAPS, Cli 294 mM, low Clo 30 mM): 92.5 mM | DS·Clo (Dixon slope times [Clo]) (exp 87, pHo 12.4, Clo 30 mM): 0.3492 | Dixon slope (DS) for Io inhibition of Cl- exchange (exp 87, pHo 12.4, Clo 30 mM): 0.01164 | High/low: DS·Clo at the highest [Clo] divided by that at the given [Clo] (exp 87, pHo 12.4, Clo 30 mM): 0.81 | DS·Clo (Dixon slope times [Clo]) (exp 87, pHo 12.4, Clo 200 mM): 0.2824 | Dixon slope (DS) for Io inhibition of Cl- exchange (exp 87, pHo 12.4, Clo 200 mM): 0.001412 | ID50 for iodide in the medium with low Cl- concentration (exp 89, pHo 11.9, 0°C, CAPS, Cli 304 mM, low Clo 30 mM): 91.8 mM | ID50 for iodide in the medium with low Cl- concentration (exp 89, pHo 12, 0°C, No buffer, Cli 304 mM, low Clo 30 mM): 128.5 mM | DS·Clo (Dixon slope times [Clo]) [3]: 0.0854 | Dixon slope (DS) for Io inhibition of Cl- exchange [3]: 0.081 | High/low: DS·Clo at the highest [Clo] divided by that at the given [Clo] [3]: 3.96 | DS·Clo (Dixon slope times [Clo]) [4]: 0.1048 | Dixon slope (DS) for Io inhibition of Cl- exchange [4]: 0.0506 | High/low: DS·Clo at the highest [Clo] divided by that at the given [Clo] [4]: 3.22 | DS·Clo (Dixon slope times [Clo]) [5]: 0.338 | Dixon slope (DS) for Io inhibition of Cl- exchange [5]: 0.00233 | DS·Clo (Dixon slope times [Clo]) [6]: 0.0724 | Dixon slope (DS) for Io inhibition of Cl- exchange [6]: 0.0349 | High/low: DS·Clo at the highest [Clo] divided by that at the given [Clo] [6]: 3.66 | DS·Clo (Dixon slope times [Clo]) [7]: 0.0907 | Dixon slope (DS) for Io inhibition of Cl- exchange [7]: 0.0219 | High/low: DS·Clo at the highest [Clo] divided by that at the given [Clo] [7]: 2.92 | DS·Clo (Dixon slope times [Clo]) [8]: 0.2652 | Dixon slope (DS) for Io inhibition of Cl- exchange [8]: 0.00204 | 1/R, ratio of dissociation constants alkaline/neutral state (our value): 69 | apparent ID50 for I- as an inhibitor of Cl- exchange (pH 10.6, 1.65 mM [Clo]): 23.6 ± 2.1 mM | y intercept of ID50 for Io vs [Clo] (should give KoI) (pHi and pHo 7.2, 0°C, Cli ~150 mM, media with 5 mM Hepes, Fig. 5): 2.0 ± 0.2 mM | y intercept of Dixon slope for Io inhibition vs 1/[Clo] (pHo 7.2, 25 mM K3citrate plus sucrose replacing Cl-, Fig. 4B): 0.0017 kg Hb·s·mmol-1·mM-1 | y intercept of Dixon slope for Io inhibition vs 1/[Clo] (pHo 7.2, sucrose replacing Clo, Fig. 4A): 0.006 kg Hb·s·mmol-1·mM-1 | Kd (pHo 7.2, 0°C): 0.83 mM | Kd (pHo 8.0, 0°C): 0.45 mM | Kd (pHo 8.5, 0°C): 1.01 mM | Kd (pHo 8.66, 0°C): 1.26 mM | Kd (pHo 9.2, 0°C): 2.6 mM | Kd (pHo 9.9, 0°C): 5.63 mM | Kd (pHo 10, 0°C): 6.48 mM | Kd (pHo 10.6, 0°C): 18.4 mM | Kd (pHo 10.7, 0°C): 16.4 mM | Kd (pHo 11.6, 0°C): 35.8 mM | Kd (pHo 11.9, 0°C): 75.6 mM | Kd (pHo 12.4, 0°C): 73.4 mM | R = K++I/K+I, ratio of I- dissociation constants for neutral and alkaline forms (two-titratable-site fit to KoI data): 0.0145
Structure (SMILES): [I-].[K+] [iodide, potassium iodide]
